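Each compound was tested at five concentrations against cells in 96-well plates for 48 hours. GI50: concentration for 50% inhibition of growth. TGI is the concentration that stops growth completely.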
Experiments:
Assay in all cases: NCI-60 cell line screen, 48 h
[1] = test system: MOLT-4 leukemia
[2] = test system: NCI-H23 lung
[3] = test system: SNB-75 CNS
[4] = test system: ACHN renal
[5] = test system: SF-539 CNS
[6] = test system: HT29 colon
[7] = test system: SF-268 CNS
[8] = test system: NCI/ADR-RES ovarian
[9] = test system: NCI-H522 lung
[10] = test system: CCRF-CEM leukemia
[11] = test system: T-47D breast
[12] = test system: HOP-92 NSCLC
[13] = test system: UACC-257 melanoma
[14] = test system: OVCAR-4 ovarian
[15] = test system: MDA-MB-468 breast
[16] = test system: MDA-MB-231 breast
[17] = test system: COLO 205 colon
[18] = test system: MDA-MB-435
[19] = test system: OVCAR-5 ovarian
[20] = test system: HOP-62 NSCLC
[21] = test system: DU-145 prostate
[22] = test system: HCT-15 colon
[23] = test system: IGROV1 ovarian
[24] = test system: CAKI-1 renal
[25] = test system: SNB-19 CNS
[26] = test system: UO-31 renal
[27] = test system: SF-295 CNS
[28] = test system: K-562 leukemia
[29] = test system: 786-0 renal
[30] = test system: HCT-116 colon
[31] = test system: PC-3 prostate
[32] = test system: A549 NSCLC
[33] = test system: RXF 393 renal
[34] = test system: HL-60(TB) leukemia
[35] = test system: BT-549 breast
[36] = test system: SK-MEL-2 melanoma
[37] = test system: M14 melanoma
[38] = test system: UACC-62 melanoma
[39] = test system: TK-10 renal
[40] = test system: SW-620 colon
[41] = test system: KM12 colon
[42] = test system: RPMI-8226 leukemia
[43] = test system: LOX IMVI melanoma
[44] = test system: SK-OV-3 ovarian
[45] = test system: HCC-2998 colon
[46] = test system: OVCAR-8 ovarian
[47] = test system: SK-MEL-28 melanoma
[48] = test system: SK-MEL-5 melanoma
[49] = test system: U251 CNS
[50] = test system: A498 renal
[51] = test system: HS 578T breast
[52] = test system: NCI-H460 lung
[53] = test system: MCF7 breast
[54] = test system: OVCAR-3 ovarian
[55] = test system: MALME-3M melanoma
[56] = test system: SN12C renal
[57] = test system: NCI-H226 lung
[58] = test system: EKVX NSCLC
[59] = test system: SR leukemia

What does the source list for `CC(C)c1sc(NC(=O)c2cc(NC(=O)c3cc(NC(=O)c4cscn4)cn3C)cn2C)nc1C(=O)NCCCN(C)C`?
GI50 [1]: 9.35 µM; TGI [1]: > 28.3 µM; GI50 [2]: 4.51 µM; TGI [2]: 10.4 µM; GI50 [3]: 0.829 µM; TGI [3]: 11.7 µM; GI50 [4]: > 28.3 µM; TGI [4]: > 28.3 µM; GI50 [5]: 1.08 µM; TGI [5]: 4.51 µM; GI50 [6]: 5.35 µM; TGI [6]: 10.9 µM; GI50 [7]: 2.63 µM; TGI [7]: > 28.3 µM; GI50 [8]: > 28.3 µM; TGI [8]: > 28.3 µM; GI50 [9]: 1.08 µM; TGI [9]: 5.58 µM; GI50 [10]: 2.14 µM; TGI [10]: > 28.3 µM; GI50 [11]: 1.07 µM; TGI [11]: 12.5 µM; GI50 [12]: 0.846 µM; TGI [12]: 9.01 µM; GI50 [13]: 5.78 µM; TGI [13]: 16.8 µM; GI50 [14]: 5.34 µM; TGI [14]: > 28.3 µM; GI50 [15]: 1.03 µM; TGI [15]: 4.68 µM; GI50 [16]: 5.63 µM; TGI [16]: 21.8 µM; GI50 [17]: 1.86 µM; TGI [17]: 5.68 µM; GI50 [18]: 3.86 µM; TGI [18]: 19.8 µM; GI50 [19]: 6.29 µM; TGI [19]: 21 µM; GI50 [20]: 6.43 µM; TGI [20]: 19.6 µM; GI50 [21]: 5.49 µM; TGI [21]: > 28.3 µM; GI50 [22]: > 28.3 µM; TGI [22]: > 28.3 µM; GI50 [23]: 4.48 µM; TGI [23]: 12.3 µM; GI50 [24]: 17.5 µM; TGI [24]: > 28.3 µM; GI50 [25]: 0.838 µM; TGI [25]: > 28.3 µM; GI50 [26]: > 28.3 µM; TGI [26]: > 28.3 µM; GI50 [27]: 9.83 µM; TGI [27]: > 28.3 µM; GI50 [28]: 1.85 µM; TGI [28]: > 28.3 µM; GI50 [29]: 6.16 µM; TGI [29]: 15.5 µM; GI50 [30]: 2.29 µM; TGI [30]: 8.44 µM; GI50 [31]: 1.25 µM; TGI [31]: 24.8 µM; GI50 [32]: 9.72 µM; TGI [32]: > 28.3 µM; GI50 [33]: 1.84 µM; TGI [33]: 6.99 µM; GI50 [34]: 6.12 µM; TGI [34]: 18.8 µM; GI50 [35]: 0.994 µM; TGI [35]: 4.45 µM; GI50 [36]: 3.75 µM; TGI [36]: 7.88 µM; GI50 [37]: 5.25 µM; TGI [37]: 14.2 µM; GI50 [38]: 3.57 µM; TGI [38]: 7.22 µM; GI50 [39]: > 28.3 µM; TGI [39]: > 28.3 µM; GI50 [40]: 4.21 µM; TGI [40]: 16.3 µM; GI50 [41]: 11.3 µM; TGI [41]: > 28.3 µM; GI50 [42]: 28.1 µM; TGI [42]: > 28.3 µM; GI50 [43]: 0.739 µM; TGI [43]: 2.21 µM; GI50 [44]: 1.37 µM; TGI [44]: 16.3 µM; GI50 [45]: 3.86 µM; TGI [45]: 7.92 µM; GI50 [46]: 7.86 µM; TGI [46]: 26 µM; GI50 [47]: 3.17 µM; TGI [47]: 11.9 µM; GI50 [48]: 5.35 µM; TGI [48]: 11.1 µM; GI50 [49]: 1.14 µM; TGI [49]: > 28.3 µM; GI50 [50]: > 28.3 µM; TGI [50]: > 28.3 µM; GI50 [51]: 4.55 µM; TGI [51]: 26.4 µM; GI50 [52]: 7.6 µM; TGI [52]: 22 µM; GI50 [53]: 3.58 µM; TGI [53]: 10.4 µM; GI50 [54]: 2.03 µM; TGI [54]: > 28.3 µM; GI50 [55]: 3.78 µM; TGI [55]: 8.26 µM; GI50 [56]: 5.89 µM; TGI [56]: > 28.3 µM; GI50 [57]: 3.22 µM; TGI [57]: > 28.3 µM; GI50 [58]: 5.84 µM; TGI [58]: > 28.3 µM

What does the source list for `CC[C@]12C=CCN3CC[C@@]4(c5ccc(OC)cc5N(C)[C@H]4[C@@](O)(C(=O)OC)[C@@H]1OC(=O)CCC[P+](c1ccc(C)cc1)(c1ccc(C)cc1)c1ccc(C)cc1)[C@@H]32`?
GI50 [1]: 0.32 µM; TGI [1]: 1.46 µM; GI50 [2]: 0.282 µM; TGI [2]: 1.02 µM; GI50 [3]: 0.217 µM; TGI [3]: 0.777 µM; GI50 [4]: 1.32 µM; TGI [4]: 2.7 µM; GI50 [5]: 0.313 µM; TGI [5]: 1.1 µM; GI50 [6]: 0.195 µM; TGI [6]: 0.446 µM; GI50 [7]: 0.335 µM; TGI [7]: 1.42 µM; GI50 [59]: 0.294 µM; TGI [59]: 1.4 µM; GI50 [8]: 8.87 µM; TGI [8]: 49.6 µM; GI50 [9]: 0.264 µM; TGI [9]: 0.929 µM; GI50 [10]: 0.301 µM; TGI [10]: 1.45 µM; GI50 [11]: 0.247 µM; TGI [11]: 0.907 µM; GI50 [12]: 0.173 µM; TGI [12]: 0.578 µM; GI50 [13]: 0.31 µM; TGI [13]: 1.12 µM; GI50 [14]: 0.352 µM; TGI [14]: 1.58 µM; GI50 [15]: 0.133 µM; TGI [15]: 0.354 µM; GI50 [16]: 0.234 µM; TGI [16]: 0.61 µM; GI50 [17]: 0.18 µM; TGI [17]: 0.364 µM; GI50 [18]: 0.29 µM; TGI [18]: 1.04 µM; GI50 [19]: 0.267 µM; TGI [19]: 0.905 µM; GI50 [20]: 0.311 µM; TGI [20]: 1.17 µM; GI50 [21]: 0.427 µM; TGI [21]: 1.58 µM; GI50 [22]: 1.63 µM; TGI [22]: 3.04 µM; GI50 [23]: 0.336 µM; TGI [23]: 1.18 µM; GI50 [24]: 1.33 µM; TGI [24]: 3.05 µM; GI50 [25]: 0.29 µM; TGI [25]: 1.14 µM; GI50 [26]: 1.45 µM; TGI [26]: 2.82 µM; GI50 [27]: 0.371 µM; TGI [27]: 1.31 µM; GI50 [28]: 0.14 µM; TGI [28]: 1.15 µM; GI50 [29]: 0.756 µM; TGI [29]: 2.08 µM; GI50 [30]: 0.271 µM; TGI [30]: 1.11 µM; GI50 [31]: 0.236 µM; TGI [31]: 1.08 µM; GI50 [32]: 0.369 µM; TGI [32]: 1.47 µM; GI50 [33]: 0.256 µM; TGI [33]: 0.911 µM; GI50 [34]: 0.178 µM; TGI [34]: 0.593 µM; GI50 [35]: 0.227 µM; TGI [35]: 0.727 µM; GI50 [37]: 0.384 µM; TGI [37]: 1.37 µM; GI50 [38]: 0.247 µM; TGI [38]: 0.822 µM; GI50 [39]: 0.602 µM; TGI [39]: 1.92 µM; GI50 [40]: 0.399 µM; TGI [40]: 1.58 µM; GI50 [41]: 0.309 µM; TGI [41]: 1.11 µM; GI50 [42]: 0.128 µM; TGI [42]: 1.04 µM; GI50 [43]: 0.327 µM; TGI [43]: 1.14 µM; GI50 [44]: 0.262 µM; TGI [44]: 0.794 µM; GI50 [45]: 0.319 µM; TGI [45]: 1.2 µM; GI50 [47]: 0.383 µM; TGI [47]: 1.46 µM; GI50 [48]: 0.356 µM; TGI [48]: 1.04 µM; GI50 [49]: 0.258 µM; TGI [49]: 1.4 µM; GI50 [50]: 1.56 µM; TGI [50]: 3.23 µM; GI50 [53]: 0.229 µM; TGI [53]: 0.968 µM; GI50 [54]: 0.337 µM; TGI [54]: 1.27 µM; GI50 [55]: 0.189 µM; TGI [55]: 0.448 µM; GI50 [56]: 0.264 µM; TGI [56]: 0.949 µM; GI50 [58]: 0.46 µM; TGI [58]: 1.78 µM

Source: PubChem BioAssay (NCI)
